# Measured values as given in patent US20140086938A1, “METHODS OF INHIBITING TUMOR GROWTH USING TTK ANTAGONISTS” (University Health Network, priority 2007, published 2014).
# Legend:
# tumors = details: TNP-470 below maximum tolerated dose with cyclophophamide 170 mg/kg, every 6 days; cited from earlier work
# MDA-MB-330 = assay: SRB cell viability after siRNA transfection; format: cell-based, human; details: 40 nM siRNA, day 5 post-transfection, normalized over siCONTROL
# Protocol: (§1) Different normal breast and breast cancer cell lines were used for siRNA transfection. Cells were seeded at various concentrations, ranging from 1500 to 6000 per well according to cell growth rate, into 96 well plates. 40 nM individual siRNAs or 40 nM siRNA pool including four individual siRNAs at 10 nM each were transfected into cells using Lipofectamine-2000 24 hrs after cell seeding. Cells were then incubated at 37° C. for five days before cell viability assay were conducted.
# (§2) SRB assay was performed to assess cell survival. SRB is a water-soluble dye that binds to the basic amino acids of the cellular proteins. Thus, colorimetric measurement of the bound dye provides an estimate of the total protein mass and is related to the cell number. The cells were fixed in situ by gently aspirating off the culture media and adding 50 μl ice cold 10% Tri-chloroacetic Acid (TCA) per well and incubate at 4° C. for 30-60 min. The plates were washed with tap water five times and allowed to air dry for 5 min. 50 μl of 0.4% (w/v) Sulforhodamine B solution in 1% (v/v) acetic acid was added per well and incubated for 30 min at RT for staining. Following staining, plates were washed four times with 1% acetic acid to remove any unbound dye and then allowed to air dry for 5 min. The stain was solubilized with 100 μl of 10 mM Tris pH 10.5 per well. Absorbance was read at 570 mn. The cell survival percentage after each siRNA(s) knock down was calculated over the non-silencing control siCTRL or siPOOL as well as siTOX as a transfection efficiency control.
# (§3) To assess the effects of TTK knockdown on the viability of breast cancer cells, various breast cancer cell lines were transfected with each of the four TTK-targeting siRNAs individually, the pooled siRNA containing all four of the TTK-targeting siRNAs, or the siCONTROL siRNA, all at a concentration of 40 nM. At day 5 post-transfection, the viability of the cells was determined using the SRB assay described herein.
# HCC1419 = assay: SRB cell viability after siRNA transfection; format: cell-based, human; details: 40 nM siRNA, day 5 post-transfection, normalized over siCONTROL
# Protocol: as §1, §2, §3
# MDA-MB-435 = assay: SRB cell viability after siRNA transfection; format: cell-based, human; details: 40 nM siRNA, day 5 post-transfection, normalized over siCONTROL
# Protocol: as §1, §2, §3
# T47D = assay: SRB cell viability after siRNA transfection; format: cell-based, human; details: 40 nM siRNA, day 5 post-transfection, normalized over siCONTROL
# Protocol: as §1, §2, §3
# MCF-7 = assay: SRB cell viability after siRNA transfection; format: cell-based, human; details: 40 nM siRNA, day 5 post-transfection, normalized over siCONTROL
# Protocol: as §1, §2, §3
# Hs578T = assay: SRB cell viability after siRNA transfection; format: cell-based, human; details: 40 nM siRNA, day 5 post-transfection, normalized over siCONTROL
# Protocol: as §1, §2, §3
# BT474 = assay: SRB cell viability after siRNA transfection; format: cell-based, human; details: 40 nM siRNA, day 5 post-transfection, normalized over siCONTROL
# Protocol: as §1, §2, §3
# CAMA-1 = assay: SRB cell viability after siRNA transfection; format: cell-based, human; details: 40 nM siRNA, day 5 post-transfection, normalized over siCONTROL
# Protocol: as §1, §2, §3
# MDA-MB-468 = assay: SRB cell viability after siRNA transfection; format: cell-based, human; details: 40 nM siRNA, day 5 post-transfection, normalized over siCONTROL
# Protocol: as §1, §2, §3
# SKBr-3 = assay: SRB cell viability after siRNA transfection; format: cell-based, human; details: 40 nM siRNA, day 5 post-transfection, normalized over siCONTROL
# Protocol: as §1, §2, §3
# MDA-MB-453 = assay: SRB cell viability after siRNA transfection; format: cell-based, human; details: 40 nM siRNA, day 5 post-transfection, normalized over siCONTROL
# Protocol: as §1, §2, §3
# MDA-MB-231 = assay: SRB cell viability after siRNA transfection; format: cell-based, human; details: 40 nM siRNA, day 5 post-transfection, normalized over siCONTROL
# Protocol: as §1, §2, §3
# A549 (Lung) = assay: Cell cycle profile by flow cytometry after siRNA transfection; format: cell-based, human; details: 40 nM siRNA, day 3 post-transfection; for <G1: siCONTROL (Neg. Control) 0.84; for G2/M: siCONTROL (Neg. Control) 10.57
# Protocol: (§4) To assess the effects of TTK knockdown on the physiology of normal breast and breast cancer cell lines, luminal (MCF7) or basal-like (MDA-MB-435, MDA-MB-468) breast cancer cell lines, a lung cancer cell line (A549) and a normal breast cell line (184A1) each were transfected with 40 nM of TTK-targeting siRNA #2, siRNA #3, the pooled siRNA containing all four of the TTK-targeting siRNAs, or the siCONTROL siRNA. At day 3 post-transfection, the cell cycle profile of the transfected cells was analyzed by flow cytometry to determine the effects of TTK knockdown on cell cycle arrest and cell death. Depletion of TTK in cells transfected with TTK-targeting siRNAs caused significant cell cycle arrest and cell death.
# MDA-MB-468 (Basal) = assay: as above; format: cell-based, human; details: 40 nM siRNA, day 3 post-transfection; for <G1: siCONTROL (Neg. Control) 4.09; for G2/M: siCONTROL (Neg. Control) 20.59
# Protocol: as §4
# MCF-7 (Luminal) = assay: as above; format: cell-based, human; details: for apoptosis, indicated by increased G2/M and <G1 populations: MCF7 breast cancer cells, flow cytometry, vs siCONTROL; for <G1 / G2/M: MCF-7, 40 nM siRNA, day 3 post-transfection; for <G1: siCONTROL (Neg. Control) 2.11; for G2/M: siCONTROL (Neg. Control) 16.17
# Protocol: as §4
# MDA-MB-435 (Basal) = assay: as above; format: cell-based, human; details: 40 nM siRNA, day 3 post-transfection; for <G1: siCONTROL (Neg. Control) 0.85; for G2/M: siCONTROL (Neg. Control) 18.77
# Protocol: as §4
# 184A1 (Normal) = assay: as above; format: cell-based, human; details: 40 nM siRNA, day 3 post-transfection; for <G1: siCONTROL (Neg. Control) 1.03; for G2/M: siCONTROL (Neg. Control) 10.35
# Protocol: as §4
# [1] = tested on: T-47D breast cancer cells; assay: Colony formation in soft agar after siRNA transfection; format: cell-based, human; details: 40 nM siRNA, relative to siCONTROL, two independent experiments
# Protocol: Cells were transfected with 40 nM individual siRNAs, 40 nM siRNA pool including four individual siRNAs at 10 nM each or 40 nM non-silencing control siCONTROL using Lipofectamine 2000 Transfection Reagent (Invitrogen Corporation), mixed with culture medium containing 0.7% agar in 6-well plates and cultured at 37° C. After 2 weeks, the top layer of the culture was stained with 0.2% p-iodonitrotetrazolium violet and colonies were counted using a Sorcerer Colony Counter (Optomax).
# To determine the effects of siRNA-mediated knockdown of TTK gene expression on anchorage-independent cell growth in breast cancer cells, T-47D breast cancer cell line was transfected with either the siRNA#2 or siRNA#3 TTK-targeting siRNA, the siRNA POOL containing 4 TTK-targeting siRNAs or the siCONTROL non-targeting siRNA. Following transfection colony formation in soft agar was assessed.
Molecule,% survival (MDA-MB-330),% survival (HCC1419),% survival (MDA-MB-435),% survival (T47D),% survival (MCF-7),% survival (Hs578T),% survival (BT474),% survival (CAMA-1),% survival (MDA-MB-468),% survival (SKBr-3),% survival (MDA-MB-453),% survival (MDA-MB-231),<G1 (A549 (Lung)),G2/M (A549 (Lung)),<G1 (MDA-MB-468 (Basal)),G2/M (MDA-MB-468 (Basal)),"apoptosis, indicated by increased G2/M and <G1 populations (MCF-7 (Luminal))",<G1 (MCF-7 (Luminal)),G2/M (MCF-7 (Luminal)),<G1 (MDA-MB-435 (Basal)),other results
CO[C@@H]1[C@H](OC(=O)NC(=O)CCl)CC[C@]2(CO2)[C@H]1[C@@]1(C)O[C@@H]1CC=C(C)C [TNP-470],–,–,–,–,–,–,–,–,–,–,–,–,–,–,–,–,–,–,–,–,tumor response (tumors): complete regression of the tumors
"siRNA #1: siRNA targeting human TTK: 5′-GCAAUACCUUGGAUGAUUA-3′ (SEQ ID NO: 3) (listed as RNA, chemistry not given here)",0.31%,0.91%,0.78%,0.62%,0.27%,1.02%,0.64%,0.46%,0.69%,0.32%,0.33%,0.21%,–,–,–,–,–,–,–,–,–
"siRNA #2: siRNA targeting human TTK: 5′-GGUAUUAACUGCCCAAGAA-3′ (SEQ ID NO: 4) (listed as RNA, chemistry not given here)",0.38%,0.75%,0.25%,0.44%,0.27%,1.25%,0.66%,0.30%,0.00%,0.34%,−0.04%,−0.09%,6.03,20.58,15.10,15.72,caused apoptosis of the cancer cells,12.03,25.18,4.69,G2/M (MDA-MB-435 (Basal)): 19.89; <G1 (184A1 (Normal)): 5.35; G2/M (184A1 (Normal)): 27.75; colonies formed in soft agar (number and size) [1]: reduction in the number of colonies; colonies formed in soft agar (number and size) ([1]; listed as siRNA#2): reduction in both colony size and number
"siRNA #3: siRNA targeting human TTK: 5′-GCACGUGACUACUUUCAAA-3′ (SEQ ID NO: 5) (listed as RNA, chemistry not given here)",0.63%,0.91%,0.60%,0.74%,0.23%,0.53%,0.83%,0.52%,0.27%,0.49%,0.18%,0.23%,11.38,24.87,11.12,28.41,caused apoptosis of the cancer cells,5.61,65.23,2.66,G2/M (MDA-MB-435 (Basal)): 40.08; <G1 (184A1 (Normal)): 3.92; G2/M (184A1 (Normal)): 17.49; colonies formed in soft agar (number and size) [1]: reduction in the number of colonies; colonies formed in soft agar (number and size) ([1]; listed as siRNA#3): reduction in both colony size and number
"siRNA #4: siRNA targeting human TTK: 5′-GAUAAGAUCAUCCGACUUU-3′ (SEQ ID NO: 6) (listed as RNA, chemistry not given here)",0.72%,1.05%,0.93%,1.19%,0.63%,1.16%,0.90%,0.77%,1.46%,0.91%,0.56%,0.58%,–,–,–,–,–,–,–,–,–
